This data set in a line: Half-life of DTT-6-A and hm^6A in aqueous solutions with different pH values. It is filed as physicochemical. To be noted: aqueous solution, neutral environment. As for the experimental part:
In order to study whether the stability of product (DTT-6-A) produced by the reaction of hm^6A and DTT was improved compared with hm^6A, half-life of DTT-6-A in aqueous solutions with different pH values was measured.

Experimental findings from patent US12473594B2, “Chemical tagging-based method for modified nucleoside sequencing, enrichment, and measurement” (PEKING UNIVERSITY, priority 2019, dated 2025) are described below.

As a reminder, the half-life is the time in which the quantity being followed falls by half.

With `OCNc1ncnc2c1ncn2[C@@H]1O[C@H](CO)[C@@H](O)[C@H]1O` [hm^6A, N^6-hydroxymethyl adenine nucleoside], the half-life came out at 2 h.
